These results are taken from PubChem BioAssay (NCI).

Test systems include SK-OV-3 ovarian; NCI-H460 lung; MDA-MB-231 breast; A498 renal; DU-145 prostate; HCC-2998 colon; 786-0 renal; SN12C renal; KM12 colon; NCI-H522 lung.
Holding throughout (assay): growth of human tumour cells (NCI), 48 h

“And” between values parts separate entries of the source, which are not always exact repeats. Equal values may be shown once.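 Growth conditions: 96-well plates. Treatment: test compound, 48 hours, 5 concentrations. Analysis: linear interpolation between bracketing concentrations; unreached endpoints set to highest concentration. GI50 = concentration required for 50% inhibition of growth. TGI denotes the concentration required for complete inhibition of growth.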

Turning to `Cc1nc2cc(NC(=O)CN3CCN(CCN4C(=O)c5cccc6cccc(c56)C4=O)CC3)ccc2s1`, the GI50 in the assay on SK-OV-3 ovarian is 7.65 µM; with NCI-H460 lung, 3.44 µM; in the assay on MDA-MB-231 breast it was 11.7 µM; in the assay on A498 renal, 5.63 µM; in the assay with DU-145 prostate, 5.21 µM; with HCC-2998 colon, 6.66 µM. Also, the GI50 is 5.91 µM in the assay with 786-0 renal, 5.22 µM in the assay on SN12C renal, 4.95 µM with KM12 colon and 3.01 µM with NCI-H522 lung. Further, the TGI in the assay with SK-OV-3 ovarian was over 100 µM; with NCI-H460 lung, 13.1 µM; in the assay on MDA-MB-231 breast, over 100 µM; in the assay with A498 renal it was 38.3 µM; in the assay with DU-145 prostate, 17.1 µM; with HCC-2998 colon it was over 100 µM. Besides, the TGI was 19.1 µM with 786-0 renal, over 100 µM in the assay with SN12C renal, 18.4 µM in the assay with KM12 colon and 13.8 µM in the assay on NCI-H522 lung.
With `COc1cc2c(c(OC)c1OC)-c1c(c3ccc([N+](=O)[O-])cc3c(=O)n1CCCN=[N+]=[N-])C2=O`, the GI50 with SK-OV-3 ovarian is 23.1 µM; with NCI-H460 lung, 12.3 µM; in the assay on MDA-MB-231 breast, 19.1 µM; with A498 renal, 11.9 µM; in the assay with DU-145 prostate, 71.3 µM; with HCC-2998 colon, over 100 µM. In addition, the GI50 was 15.4 µM in the assay on 786-0 renal, 30.4 µM with SN12C renal, over 100 µM with KM12 colon and 0.251 µM in the assay with NCI-H522 lung. The TGI is 55.2 µM in the assay on SK-OV-3 ovarian; over 100 µM in the assay on NCI-H460 lung; 56.3 µM with MDA-MB-231 breast; 29.6 µM with A498 renal; over 100 µM in the assay on DU-145 prostate; over 100 µM in the assay with HCC-2998 colon. For the same molecule, the TGI in the assay on 786-0 renal is 43.8 µM; in the assay on SN12C renal, over 100 µM; in the assay with KM12 colon it was over 100 µM; in the assay with NCI-H522 lung, 5.71 µM.
Take `C#Cc1cccc(NC(=O)Nc2cccc(NC(=O)CCl)c2)c1`: the GI50 was 46.5 µM in the assay with SK-OV-3 ovarian; 27.3 µM with NCI-H460 lung; 22.9 µM with MDA-MB-231 breast; 1.22 µM in the assay on A498 renal; over 82.5 µM with DU-145 prostate; over 82.5 µM in the assay with HCC-2998 colon. The GI50 in the assay with 786-0 renal was 25 µM; in the assay on SN12C renal, 17.3 µM; with KM12 colon, 58.6 µM; in the assay with NCI-H522 lung, 15.2 µM. For the same molecule, the TGI with SK-OV-3 ovarian is over 82.5 µM; with NCI-H460 lung, over 82.5 µM; with MDA-MB-231 breast, 65.2 µM; in the assay on A498 renal, over 82.5 µM; with DU-145 prostate, over 82.5 µM; in the assay with HCC-2998 colon, over 82.5 µM. The TGI is over 82.5 µM in the assay with 786-0 renal, 49.9 µM in the assay with SN12C renal, over 82.5 µM in the assay on KM12 colon and 48.6 µM with NCI-H522 lung.
As for `CN(C)c1ccc(/C=C/C(=O)c2ccc(Nc3nc(Nc4ccc(F)cc4)nc(Nc4ccc(Cl)cc4)n3)cc2)cc1`, the GI50 is 19 µM with SK-OV-3 ovarian; 3.94 µM with NCI-H460 lung; 9.56 µM in the assay on MDA-MB-231 breast; 2.97 µM with A498 renal; 5.5 µM with DU-145 prostate; 15.4 µM in the assay with HCC-2998 colon. Besides, the GI50 is 2.71 µM in the assay on 786-0 renal, 15.3 µM in the assay with SN12C renal, 5.75 µM in the assay on KM12 colon and 3.17 µM in the assay on NCI-H522 lung. In addition, the TGI is 74.9 µM in the assay with SK-OV-3 ovarian; 15.6 µM in the assay on NCI-H460 lung; 73 µM with MDA-MB-231 breast; 18.1 µM in the assay on A498 renal; 27 µM with DU-145 prostate; over 100 µM in the assay with HCC-2998 colon. The TGI with 786-0 renal was 14.1 µM; in the assay with SN12C renal it was over 100 µM; in the assay on KM12 colon, 23.2 µM; with NCI-H522 lung it was 24.1 µM.
`CCCCc1ccc(C(N)=O)nc1`: the GI50 in the assay on SK-OV-3 ovarian is over 100 µM; in the assay on NCI-H460 lung it was over 100 µM; in the assay on MDA-MB-231 breast it was over 100 µM; with A498 renal it was 48.1 µM; in the assay on DU-145 prostate, over 100 µM; with HCC-2998 colon it was over 100 µM. Besides, the GI50 in the assay on 786-0 renal, in the assay with SN12C renal, in the assay on KM12 colon and in the assay on NCI-H522 lung was over 100 µM each time. Further, the TGI with SK-OV-3 ovarian, with NCI-H460 lung, in the assay with MDA-MB-231 breast, in the assay on A498 renal, in the assay with DU-145 prostate and in the assay with HCC-2998 colon was over 100 µM each time. The TGI with 786-0 renal, in the assay with SN12C renal, in the assay on KM12 colon and in the assay with NCI-H522 lung was over 100 µM in each case.
In the case of `Cn1c(N)cc(=O)nc1N`, the TGI in the assay on SK-OV-3 ovarian, with NCI-H460 lung, with MDA-MB-231 breast, in the assay with A498 renal, with DU-145 prostate and in the assay with HCC-2998 colon was over 100 µM throughout. Further, the TGI in the assay with 786-0 renal, in the assay on SN12C renal, in the assay with KM12 colon and in the assay on NCI-H522 lung was over 100 µM each time.
Turning to `CC(CCC/C=C/CCCN(C)C(=N)N)CC(C)C1OC(=O)C(C)C(O)/C=C/C(C)C(O)C(C)C(O)C(C)C(O)CCCC(O)CC2(O)OC(CC(OC(=O)CC(=O)O)CC(O)CC(O)C(C)C(O)/C=C/C=C/C1C)CC(O)C2O` (stereo not given), the GI50 in the assay on SK-OV-3 ovarian is 3 µM and 9.08 µg/mL; in the assay with NCI-H460 lung, 2.09 µM and 3.95 µg/mL; in the assay with MDA-MB-231 breast, 5.59 µM and 8.55 µg/mL; in the assay on A498 renal, 2.44 µM and 10.6 µg/mL; in the assay with DU-145 prostate, 2.22 µM and 6.85 µg/mL; in the assay on HCC-2998 colon, 3.18 µM and 10.9 µg/mL. The GI50 was 2.8 µM and 5.3 µg/mL in the assay on 786-0 renal; 2.22 µM and 2.78 µg/mL with SN12C renal; 1.88 µM and 2.62 µg/mL in the assay with KM12 colon; 2.38 µM and 2.79 µg/mL in the assay on NCI-H522 lung. Further, the TGI in the assay on SK-OV-3 ovarian was 11.7 µM and 18.5 µg/mL; in the assay on NCI-H460 lung it was 3.95 µM and 14.5 µg/mL; in the assay on MDA-MB-231 breast, 19 µM and 19.9 µg/mL; in the assay on A498 renal, 7.16 µM and 21.3 µg/mL; with DU-145 prostate, 4.71 µM and 16 µg/mL; in the assay with HCC-2998 colon it was 12.1 µM and 23.4 µg/mL. Further, the TGI in the assay on 786-0 renal was 7.6 µM and 17.5 µg/mL; in the assay with SN12C renal, 4.97 µM and 12 µg/mL; with KM12 colon it was 3.37 µM and 9.79 µg/mL; with NCI-H522 lung, 10.5 µM and 12.9 µg/mL.
